≈ marks a conversion by molar mass, not a printed value. Like-named read-outs stand apart in the source and are kept apart here.
How the values were obtained:
Pseudomonas aeruginosa = assay: Combination of substances with perillic acid: reduction of the MIC of perillic acid; assay type: cell-based; conditions: test compound combined with perillic acid; experiments as in Example 1
Description: (§1) All experiments were done in 96-well plates in a final volume of 200 μL. Test solutions of the investigated compounds were prepared in 25 mM buffered water. The procedure was conducted as following: 4 μL of the particular stock solution were mixed with 196 μL culture medium containing a defined inoculum of the respective target strain. Sterile controls (not inoculated) and growth controls (buffer instead of compound added) were performed. All compound concentrations were tested in triplicate for several times. The following contamination germs were examined: Escherichia coli ATCC 8739, Pseudomonas aeruginosa ATCC 9027, Stapyhlococcus aureus ATCC®6538, Bacillus subtilis subsp. spizizenii ATCC®6633, Candida albicans ATCC®10231 and Aspergillus brasiliensis ATCC®16404. The strains were cultivated either in Mueller-Hinton II Bouillon (Escherichia coli, Pseudomonas aeruginosa, Staphylococcus aureus), in yeast peptone dextrose (Bacillus subtilis, Candida albicans) or in potato dextrose medium (Aspergillus brasiliensis). All culture media were buffered with 25 mM MES-buffer. For compound testing, the plates were incubated at 37° C. for Escherichia coli, Pseudomonas aeruginosa and Staphylococcus aureus, at 28° C. for Bacillus subtilis and Candida albicans, and at 25° C. for Aspergillus brasiliensis. Plates were evaluated after 24 h and 72 h, respectively. The minimal inhibitory concentration (MIC) is defined as the concentration where no microbial growth was observed after 24 h and 72 h incubation at the specified temperature.
(§2) Activity of perillic acid was comparably low against Gram-negative bacteria. It was thus tested whether the respective MIC could be reduced by combination of perillic acid with selected substances.
(§3) Experiments were performed as described for Example 1 above. A reduction factor was determined, expressing the reduction of the MIC of perillic acid that was achievable by combination with the combination partner. For example, a reduction factor of 2 means that the MIC of perillic acid was reduced by a factor of 2 by combination of perillic acid with the respective activity enhancing substance.

Escherichia coli = assay: as above; assay type: cell-based; conditions: test compound combined with perillic acid; experiments as in Example 1
Description: as §1, §2, §3

[1] = test system: Escherichia coli ATCC 8739; assay: Minimal inhibition concentration (MIC), microdilution method adapted from DIN EN ISO 20776-1:2006; assay type: cell-based; conditions: Escherichia coli
From the text: (§4) The antimicrobial activity of different substances was examined and compared to perillic acid in vitro using the microdilution method adapted from DIN EN ISO 20776-1:2006. Besides perillic acid and its sodium salt, other organic acids like levulinic acid, p-anisic acid, benzoic acid and sorbic acid as well as alkane-1,2-diols such as hexane-1,2-diol, octane-1,2-diol and decane-1,2-diol were studied. Additionally, the commonly used preservatives 2-phenoxyethanol, 2-phenylethanol and benzyl alcohol were investigated.
as §1
(§5) MIC-values are given according to the following letter code.

[2] = test system: Candida albicans ATCC®10231; assay: Minimal inhibition concentration (MIC), microdilution method; assay type: cell-based; conditions: for MIC: Candida albicans
From the text: as §4, §1, §5

[3] = test system: Pseudomonas aeruginosa ATCC 9027; assay: as above; assay type: cell-based; conditions: for MIC: Pseudomonas aeruginosa
From the text: as §4, §1, §5

[4] = test system: Aspergillus brasiliensis ATCC®16404; assay: as above; assay type: cell-based; conditions: for MIC: Aspergillus brasiliensis
From the text: as §4, §1, §5

[5] = test system: Bacillus subtilis subsp. spizizenii ATCC®6633; assay: as above; assay type: cell-based; conditions: for MIC: Bacillus subtilis
From the text: as §4, §1, §5

[6] = test system: Stapyhlococcus aureus ATCC®6538; assay: as above; assay type: cell-based, Staphylococcus aureus; conditions: for MIC: Staphylococcus aureus
From the text: as §4, §1, §5

[7] = ATCC8739, read-out: MIC [A to D] Escherichia coli
[8] = ATCC9027, read-out: MIC [A to D] Pseudomonas aeruginosa
[9] = ATCC8739, Mueller-Hinton II Bouillon, 25 mM MES-buffer, 37° C., no growth after 24 h and 72 h, read-out: MIC [A to D] Escherichia coli
[10] = ATCC10231, yeast peptone dextrose, 25 mM MES-buffer, 28° C., no growth after 24 h and 72 h, read-out: MIC [A to D] Candida albicans
[11] = ATCC9027, Mueller-Hinton II Bouillon, 25 mM MES-buffer, 37° C., no growth after 24 h and 72 h, read-out: MIC [A to D] Pseudomonas aeruginosa
[12] = ATCC16404, potato dextrose medium, 25 mM MES-buffer, 25° C., no growth after 24 h and 72 h, read-out: MIC [A to D] Aspergillus brasiliensis
[13] = ATCC6633, yeast peptone dextrose, 25 mM MES-buffer, 28° C., no growth after 24 h and 72 h, read-out: MIC [A to D] Bacillus subtilis
[14] = ATCC6538, Mueller-Hinton II Bouillon, 25 mM MES-buffer, 37° C., no growth after 24 h and 72 h, read-out: MIC [A to D] Staphylococcus aureus
[15] = yeast peptone dextrose, 25 mM MES-buffer, 28° C., no growth after 24 h and 72 h
[16] = potato dextrose medium, 25 mM MES-buffer, 25° C., no growth after 24 h and 72 h
[17] = Mueller-Hinton II Bouillon, 25 mM MES-buffer, 37° C., no growth after 24 h and 72 h

Reduction factor (reduction of the MIC of perillic acid by combination with the test compound) Pseudomonas aeruginosa (Pseudomonas aeruginosa)	Reduction factor (reduction of the MIC of perillic acid by combination with the test compound) Escherichia coli (Escherichia coli)	MIC [1, 9]	MIC [2, 10]	MIC [3, 11]	MIC [4, 12]	MIC [5, 13]	MIC [6, 14]	MIC [A to D] Candida albicans [2, 15]	MIC [A to D] Aspergillus brasiliensis [4, 16]	MIC [A to D] Bacillus subtilis [5, 15]	MIC [A to D] Staphylococcus aureus [6, 17]	MIC [A to D] Pseudomonas aeruginosa [3, 17]	Structure (SMILES)	MIC [1, 7]	MIC ([2]; ATCC10231, read-out: MIC [A to D] Candida albicans)	MIC [3, 8]	MIC ([4]; ATCC16404, read-out: MIC [A to D] Aspergillus brasiliensis)	MIC ([5]; ATCC6633, read-out: MIC [A to D] Bacillus subtilis)	MIC ([6]; ATCC6538, read-out: MIC [A to D] Staphylococcus aureus)
8	40	5000 to 10000 µg/mL (≈ 40.9 to 81.9 mM)	5000 to 10000 µg/mL (≈ 40.9 to 81.9 mM)	5000 to 10000 µg/mL (≈ 40.9 to 81.9 mM)	5000 to 10000 µg/mL (≈ 40.9 to 81.9 mM)	5000 to 10000 µg/mL (≈ 40.9 to 81.9 mM)	5000 to 10000 µg/mL (≈ 40.9 to 81.9 mM)						OCCc1ccccc1 [2-Phenylethanol, reference compound]						
5	20	5000 to 10000 µg/mL (≈ 46.2 to 92.5 mM)	5000 to 10000 µg/mL (≈ 46.2 to 92.5 mM)	5000 to 10000 µg/mL (≈ 46.2 to 92.5 mM)	5000 to 10000 µg/mL (≈ 46.2 to 92.5 mM)	5000 to 10000 µg/mL (≈ 46.2 to 92.5 mM)	5000 to 10000 µg/mL (≈ 46.2 to 92.5 mM)						OCc1ccccc1 [Benzyl Alcohol, reference compound]						
		1000 to 5000 µg/mL (≈ 5.74 to 28.7 mM)		1000 to 5000 µg/mL (≈ 5.74 to 28.7 mM)				D (MIC<0.1% (w/v))	D (MIC<0.1% (w/v))	D (MIC<0.1% (w/v))	D (MIC<0.1% (w/v))		CCCCCCCCC(O)CO (stereo not drawn) [Decane-1,2-diol]						
		5000 to 10000 µg/mL (≈ 24.7 to 49.4 mM)						D (MIC<0.1% (w/v))	D (MIC<0.1% (w/v))	D (MIC<0.1% (w/v))	D (MIC<0.1% (w/v))	D (MIC<0.1% (w/v))	CCCCCCCCCCC(O)CO (stereo not drawn) [Dodecane-1,2-diol]						
		5000 to 10000 µg/mL (≈ 42.3 to 84.6 mM)		5000 to 10000 µg/mL (≈ 42.3 to 84.6 mM)	5000 to 10000 µg/mL (≈ 42.3 to 84.6 mM)			A (MIC>1% (w/v))		A (MIC>1% (w/v))	A (MIC>1% (w/v))		CCCCC(O)CO (stereo not drawn) [Hexane-1,2-diol]						

Structure (SMILES)	Reduction factor (reduction of the MIC of perillic acid by combination with the test compound) Pseudomonas aeruginosa (Pseudomonas aeruginosa)	Reduction factor (reduction of the MIC of perillic acid by combination with the test compound) Escherichia coli (Escherichia coli)	MIC [1, 9]	MIC [2, 10]	MIC [3, 11]	MIC [4, 12]	MIC [5, 13]	MIC [6, 14]	MIC [A to D] Candida albicans [2, 15]	MIC [A to D] Aspergillus brasiliensis [4, 16]	MIC [A to D] Bacillus subtilis [5, 15]	MIC [A to D] Staphylococcus aureus [6, 17]	MIC [A to D] Pseudomonas aeruginosa [3, 17]	MIC [1, 7]	MIC ([2]; ATCC10231, read-out: MIC [A to D] Candida albicans)	MIC [3, 8]	MIC ([4]; ATCC16404, read-out: MIC [A to D] Aspergillus brasiliensis)	MIC ([5]; ATCC6633, read-out: MIC [A to D] Bacillus subtilis)	MIC ([6]; ATCC6538, read-out: MIC [A to D] Staphylococcus aureus)
OCCOc1ccccc1 [2-Phenoxyethanol, reference compound]	20	30												5000 to 10000 µg/mL (≈ 36.2 to 72.4 mM)	5000 to 10000 µg/mL (≈ 36.2 to 72.4 mM)	5000 to 10000 µg/mL (≈ 36.2 to 72.4 mM)	5000 to 10000 µg/mL (≈ 36.2 to 72.4 mM)	5000 to 10000 µg/mL (≈ 36.2 to 72.4 mM)	5000 to 10000 µg/mL (≈ 36.2 to 72.4 mM)
CC(=O)C1C(=O)C=C(C)OC1=O (stereo not drawn) [Dehydroacetic acid]									D (MIC<0.1% (w/v))	D (MIC<0.1% (w/v))	D (MIC<0.1% (w/v))	D (MIC<0.1% (w/v))		1000 to 5000 µg/mL (≈ 5.95 to 29.7 mM)		1000 to 5000 µg/mL (≈ 5.95 to 29.7 mM)			
